Test results taken from patent US20050090531A1, “MAG expression promoters” (priority 1999, published 2005).

How the values were obtained:
Assay type in all cases: cell-based, rat
[1] = system: myelin-related glycoprotein (MAG); assay: Time-course of MAG expression in DRG nerve cell/Schwann cell co-culture, Experimental Example 3; details: 10 μmol/ml, added every 2 days
Procedure: According to the method described in Experimental Example 1, DRG nerve cells and Schwann cells were co- cultured. A DMSO solution containing the compound of the present invention (Y-128, […]) or ascorbic acid (50 μg/ml) as a positive control compound was added to the medium every 2 days. The medium DMSO was added in the same manner as was the negative control compound. In the same manner as in Experimental Example 2, MAG was quantitatively determined before addition of the compounds and 3, 6, 9, 12, 15 and 18 days after addition.

[2] = system: myelination of axon in co-cultured DRG nerve cells and Schwann cells; assay: Myelination of axon in co-culture of DRG nerve cells and Schwann cells (Sudan Black B myelin staining), Experimental Example 1; details: 2 weeks of co-culture
Procedure: The preparation of nerve cell followed the method of Seung U. Kim (Experimental Protocols for Brain and Nerve—From cultured cell to functional analysis, ed. Katsuhiko Mikoshiba, Takao Shimizu, Yodosha). That is, an embryo was taken out from a 18-day pregnant female rat (Crj: CD(SD)IGS), from which dorsal spinal nerve root ganglia (hereinafter to be referred to as DRG) was removed under a stereoscopic microscope. DRG was treated with 0.25% trypsin and DNase I at 37° C. to disperse the cells. Adherent cells other than nerve cells were removed and the cells (5000 cells) were plated on a polylysine-coated plate. The cells were cultured in DMEM containing 10% FCS supplemented with the nerve growth factor (hereinafter to be referred to as NGF, 50 ng/ml) in a CO2 incubator. After 3 days of culture, the medium was changed to one containing Ara-C (1 μmol/l) to remove proliferative cells other than the nerve cells.
The preparation of Schwann cells followed the method of Ichiro Matsuoka (Springer Neuroscience Lab Manual 1, ed. Hiroshi Hatanaka, Springer-Verlag Tokyo). That is, the sciatic nerve of a neonatal rat (1 to 3 days postnatal, (Crj: CD(SD)IGS)) was removed under a stereoscopic microscope and adventitia was removed. By treating with trypsin/collagenase and DNase I in CMF-HBSS, the cells were dispersed. Using a culture flask, the cells were cultured in DMEM containing 10% FCS in a CO2 incubator. After culturing in a medium containing Ara-C, the cells were recovered and the cell suspension was treated successively with anti-Thy 1.1 and rabbit complement to remove cells other than the Schwann cells. Using a collagen-coated culture flask, the cells were cultured in DMEM containing 10% FCS in a CO2 incubator.
After 1 week from the start of the culture of DRG nerve cells, Schwann cells (20,000 cells) were plated on a plate in which DRG nerve cells had been cultured. he medium for co-culture was DMEM containing 2 μmol/l f forskolin, 50 ng/ml of NGF and 10% FCS. […]

[3] = system: myelin-related glycoprotein (MAG); assay: MAG expression in DRG nerve cell/Schwann cell co-culture by immunoblotting, concentration dependence, Experimental Example 2; details: tested at 1, 3, 10 or 30 μmol/l, added every 2 days for 2 weeks; immunoblot, semi-quantitative
Procedure: According to the method described in Experimental Example 1, DRG nerve cells and Schwann cells were co-cultured. A DMSO solution containing the compound of the present invention (Y-128, 1, 3, 10 or 30 μmol/l) or ascorbic acid (50 μg/ml) as a positive control compound was added to the medium every 2 days for 2 weeks. As a negative control compound, the vehicle DMSO was added in the same manner. After 2 weeks from the start of the addition of the compound, the medium was removed and a sample buffer containing sodium dodecyl sulfate (SDS) was added to the well for solubilization of the cells.
A part thereof was separated by polyacrylamide gel electrophoresis and the migrated protein was transferred to a PVDF membrane. By immunoblotting and chemiluminescence, the objective protein was detected on an X ray film. A band detected at about 100 kDa migration was identified as a signal of myelin-related glycoprotein (MAG). The X ray film was scanned and the image was imported to a computer, and the expression of MAG was semi-quantitatively determined using an analysis software, ImageQuaNT (Molecular Dynamics). […] From the above-mentioned Experimental Example, it was clarified that the compound of the present invention (Y-128) increased the expression of MAG from the concentration of 3 μmol/l.

Compound: Cc1ccc(-n2ccnc2)cc1[C@H](O)c1c(C)cc(C(=O)O)cc1C [Y-128, (S)-4-[α-hydroxy-5-(1-imidazolyl)-2-methylbenzyl]-3,5-dimethylbenzoic acid]
- time after addition at which the expression of MAG disappeared [1]: 18 days
- time-course changes of MAG expression compared with positive control ascorbic acid (50 μg/ml) ([1]; up to 18 days): the same as that by the positive control compound, ascorbic acid
- time after addition at which expression of MAG was increased maximally ([1]; measured 3, 6, 9, 12, 15 and 18 days after addition): 6 days and 12 days
- effect on myelination of axon (conclusion) ([2]; 3 μmol/l): promoted myelination of axon
- wells in which axon was stained as deep as ascorbic acid addition group ([2]; 3 μmol/l, added every 2 or 3 days, Sudan Black B stain): 5 wells out of 12 wells
- concentration from which the expression of MAG was increased [3]: ≥ 3 µmol/L

Compound: O=C1O[C@H]([C@@H](O)CO)C(O)=C1O [ascorbic acid, reference compound]
- staining of axon (myelin stain) ([2]; 50 μg/ml, added every 2 or 3 days, 12 wells, Sudan Black B stain): axon was stained deep in every well
